Test results: ChEMBL document CHEMBL1121961, “Synthesis and biological evaluation of 6-ethynyluracil, a thiol-specific alkylating pyrimidine” (J Med Chem, 1982)

Tests used:
Format in all cases: functional, cell-based
Details in all cases: Mus musculus
B16 = experiment: In vitro inhibitory activity against B16 melanoma cell lines
L1210 = experiment: In vitro inhibitory activity against leukemia L1210 cell lines
[1] = system: Lewis lung carcinoma cell line; experiment: In vitro inhibitory activity against lewis lung cell lines

Row | SMILES | Concentration (B16) [µM] | Concentration (L1210) [µM] | Concentration [1] [µM]
1 | Oc1cc(/C=C/C(Br)Br)nc(O)n1 | 1 | 1 | 8
2 | C#Cc1cc(O)nc(O)n1 | 10 | 7 | 20
